Publication PMC10350922, “Allosteric Inhibitors of Macrophage Migration Inhibitory Factor (MIF) Interfere with Apoptosis-Inducing Factor (AIF) Co-Localization to Prevent Parthanatos” (Journal of Medicinal Chemistry, 2023)

Key:
[1] = tested on: HeLa cells; assay: Cell morphology after MNNG treatment; type: cell-based; details: pretreatment with 6y, dose- and time-dependent
Excerpt: In addition, cellular morphology was investigated to see if the MIF inhibitor 6y restores the original phenotype.

[2] = Solubility observation in the MST experiment; type: physicochemical; details: at concentrations higher than 1000 μM, PBS-T with 5% DMSO
Experimental: A microscale thermophoresis (MST) assay was performed to confirm the binding of 6y to MIF. […] Overall, we concluded that 6y binds reversibly to an allosteric binding site that affects MIF tautomerase activity.

[3] = tested on: HeLa cells; assay: Immunofluorescence staining and confocal microscopy (MIF and AIF nuclear translocation); type: cell-based
Experimental: Next, we investigated the mechanism by which 6y protects genome DNA. Considering that […] is a crucial step in parthanatos, we tested if 6y interferes with MIF/AIF binding in vitro. […] Under control conditions, MIF and AIF are mainly located in the cytosol. Upon MNNG treatment, both MIF and AIF translocated to the nucleus.
Immunofluorescence staining was applied to cells to determine the nuclear trans-localization of AIF and MIF. HeLa cells were seeded onto a coverslip and treated with or without 100 μM 6y for 3 h. Then, parthanatos was induced by MNNG (50 μM, 15 min). The same amount of medium in the absence of MNNG was added for the negative control group. After overnight incubation, the cells were fixed with methanol and blocked with 2% BSA in 0.1% PBS-T. AIF and MIF were detected by AIF Monoclonal Antibody (7F7AB10, Invitrogen) and MIF Polyclonal Antibody (PA5-27343, Invitrogen), respectively. Then, AIF and MIF primary antibodies were visualized by Alexa Fluor 647 conjugated anti-Mouse IgG (Invitrogen) and Alexa Fluor 488 conjugated anti-rabbit IgG (Cell Signaling Technology, Leiden, the Netherlands), respectively. After washing, coverslips were mounted onto objective slides with an anti-fading mounting medium with NucBlue stain (Invitrogen). The pictures were acquired using a Leica SP8 confocal laser scanning microscope and analyzed by ImageJ.

[4] = biological target: T1, MIF (Homo sapiens, UniProt P14174); assay: Jump dilution assay (reversibility of binding); type: biochemical; details: 25 μM 6y, 10 min preincubation, 20-fold dilution, 20 min
T1 construct: made in house; host or cells: Escherichia coli BL21, pET-20b(p) plasmid
T1 sequence (P14174 2-115 limits assumed): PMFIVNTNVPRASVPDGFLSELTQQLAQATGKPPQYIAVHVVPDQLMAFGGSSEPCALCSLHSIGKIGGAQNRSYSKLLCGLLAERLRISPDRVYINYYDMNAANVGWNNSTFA
Experimental: To investigate the reversibility of binding, we performed the activity recovery experiment based on pre-incubation of MIF with the inhibitor at saturated concentration followed by jump dilution. The experiment aimed to study the reversibility of the MIF complex with 6y; thus, MIF was preincubated with 25 μM 6y for 10 min before 20-fold dilution and then tested for residual enzyme activity. After 20 min of residence time, MIF tautomerase activity recovered comparably to that expected for instantaneously reversible inhibitors (Figure 4b).
The solution of the enzyme (1.4 μM) was preincubated with a saturating concentration of inhibitor 6y (25 μM) for 10 min. Then, the enzyme–inhibitor mixture was diluted 20-fold with boric acid buffer, then 50 μL of the mixture was mixed with 50 μL of 2 mM PP solution in ammonium acetate buffer, and recovery of the activity was measured over 20 min. In the control groups, no enzyme/inhibitor was added.

[5] = biological target: T2, MIF/AIF binding (Homo sapiens, UniProt P14174); assay: MIF/AIF binding ELISA; details: MIF-coated plate, his-tagged AIF 4 μM
T2 construct: host or cells: Escherichia coli BL21 (MIF)
T2 sequence (P14174 2-115 limits assumed): T1 sequence (P14174 2-115 limits assumed)
Experimental: Next, we investigated the mechanism by which 6y protects genome DNA. Considering that […] is a crucial step in parthanatos, we tested if 6y interferes with MIF/AIF binding in vitro. […] Under control conditions, MIF and AIF are mainly located in the cytosol. […] Human recombinant untagged MIF was diluted in the binding buffer (Tris-HCl 100 mM, 5 mM MgCl2, 150 mM NaCl, pH 8.5) to a final concentration of 250 nM. 100 μL of MIF solution was used to coat each well of a high-binding 96-well plate overnight at 4 °C. […] After 2 h incubation, the plate was washed three times with washing buffer and incubated with anti-poly-Histidine–peroxidase antibody (Sigma, Amsterdam, the Netherlands) for 30 min. After washing, 100 μL of mixed HRP substrate reagent (R&D Systems, Minneapolis) was added, and the colorizing reaction was stopped by adding 100 μL of 1N sulfuric acid. The absorbance at 450 nm was determined with the correction at […] via a Synergy H1 plate reader.

[6] = biological target: T1, MIF; assay: Enzyme kinetics of MIF-catalyzed PP conversion (Michaelis-Menten, Lineweaver-Burk); type: biochemical; details: for Vmax: 35 nM MIF
Experimental: Enzyme kinetics experiments were performed to determine the mode of MIF inhibition by 6y (SI, Table S1). The rate of MIF-catalyzed PP conversion was measured at concentrations ranging from 0 to 10 mM in the absence or presence of various inhibitor concentrations (0, 1.4 μM, 2.1 μM, or 2.8 μM).
Toward this aim, 10 μL of the inhibitors was added to 190 μL of the enzyme solution and incubated for 10 min. Then, 50 μL of these solutions was mixed with 50 μL of the solutions of the substrate with different concentrations. The reactions were measured by the increase in UV absorbance at 300 nm, and the data from the first 3 min were used to calculate the initial velocities. The negative control (no MIF) was subtracted from all of the data, and the curves were fitted using nonlinear regression, Michaelis–Menten, and linear regression, Lineweaver–Burk. Vmax was defined as the maximum velocity as extrapolated by the curve fit. The Km of PP was defined as the concentration of PP at which 50% of maximum velocity was reached. The data were analyzed using GraphPad Prism 8.
1. Supporting figures and tables
Figure S1. Michaelis-Menten plot of MIF inhibition by 6y at the concentrations 0, 1.4, 2.1 and 2.8 µM.
Table S1. Kinetic parameters of 6y measured at 35nM of MIF.
(1 picture or pasted object on this page, not shown here)

SMILES: O=C(Nc1ccccc1)c1ccc(-n2cc(C(=O)NCc3cccs3)nn2)cc1 [Compound 6y, 1-(4-(Phenylcarbamoyl)phenyl)-N-(thiophen-2-ylmethyl)-1H-1,2,3-triazole-4-carboxamide]
- Restoration of original cell phenotype after MNNG [1]: mainly (but not completely) restored
- Solubility [2]: limited solubility
- AIF nuclear translocation upon MNNG stimulation ([3]; 100 μM 6y, MNNG 50 μM 15 min): uninfluenced
- MIF nuclear translocation upon MNNG stimulation ([3]; 100 μM 6y, MNNG 50 μM 15 min): blocks MIF nuclear translocation
- MIF localization under control conditions ([3]; without MNNG): did not affect MIF localization
- Reversibility of binding to MIF [4]: reversible
- IC50 [5]: 12.3 µM
- Vmax ([6]; 1.4 μM 6y): 0.21±0.02 abs/min
- Vmax ([6]; 2.1 µM 6y): 0.13±0.01 abs/min
- Vmax ([6]; 2.8 μM 6y): 0.08±0.01 abs/min
- Mode of MIF inhibition ([6]; Lineweaver-Burk plot, 0, 1.4, 2.1, 2.8 μM): noncompetitive
- Vmax at highest inhibitor concentration ([6]; decreasing from 0.40 ± 0.03 (control)): 0.08 ± 0.01 absorbance/min
